This is an account of results in publication PMC5063977 (The Journal of Biological Chemistry, 2016).

One assay addresses T1, RAMP2-CLR (AM1 receptor) (Homo sapiens, UniProt O60895+Q16602).
T1 construct: FLAG; expressed in transfected cells; host or cells: HEK-293 or HEK-293S cells, transient transfection, 1:1 RAMP:CLR
The assay is described as follows: cAMP accumulation, HEK-293 cells, RAMP2 + CLR. The class given is cell-based. The note with it: mean ± S.E. As to the method:
(§1) HEK-293 cells were transfected with FuGENE 6 (Roche Applied Science) in accordance with the manufacturer's instructions using a 1:3 (w:v) DNA:FuGENE ratio and a 1:1 ratio of RAMP to CLR. […] The transfected cell lines were grown for 24–48 h prior to assaying.
(§2) The transfected HEK-293 cells were washed in PBS, resuspended in stimulation buffer (PBS containing 0.1% BSA and 0.5 mM IBMX), and seeded at 2000 cells/well in 384-well white Optiplates. Ligands were added in the range of 1 pM to 1 mM, and cAMP accumulation was measured after 30 min of stimulation using a LANCE® cAMP detection kit (PerkinElmer Life Sciences). […] Plates were read using a Mithras LB 940 multimode microplate reader (Berthold Technologies). […] Values were converted to concentration using a cAMP standard curve performed in parallel.
(§3) Data analysis for cAMP assays was performed in GraphPad Prism 6.0f (San Diego, CA). Data were fitted to obtain concentration-response curves using either the three-parameter logistic equation (for pEC50 values) or the operational model for partial agonism ([34]) to obtain values of efficacy (log τ) and the equilibrium dissociation constant (log Ka). These values were then used to quantify signaling bias as change in log (τ/Ka) relative to the natural cognate ligand for the respective receptor ([41]). […] Statistical differences were analyzed using one-way ANOVA or Student's t test as appropriate with post hoc Bonferroni's or Dunnett's multiple comparisons, and p < 0.05 was considered significant. […] For RT-PCR, normalization to the internal standard GAPDH was performed to reduce variance and enable a comparison between different cell lines. To quantitate the ligand-dependent response in the yeast system, a strain lacking GPA1 (MMY11), grown in rich medium, was used as a standard ([72]). As GPA1 is not present in this strain, the Gβγ subunits are unregulated and free to signal, allowing us to determine the maximal response of our system. […] For the mammalian cell-based assays, data analysis was carried out as for the yeast curves. […]
A general note: cAMP levels reflect the balance of adenylyl cyclase and phosphodiesterase activity.

The next assay has as its target T2, RAMP3-CLR (AM2 receptor) (Homo sapiens, UniProt O60896+Q16602).
T2 construct: FLAG; expressed in transfected cells; host or cells: HEK-293 or HEK-293S cells, transient transfection, 1:1 RAMP:CLR
The assay is described as follows: cAMP accumulation, HEK-293 cells, RAMP3 + CLR. The class given is cell-based. The settings on record: mean ± S.E. As to the method: as §1, §2, §3

T1 sequence (Q16602 23-461): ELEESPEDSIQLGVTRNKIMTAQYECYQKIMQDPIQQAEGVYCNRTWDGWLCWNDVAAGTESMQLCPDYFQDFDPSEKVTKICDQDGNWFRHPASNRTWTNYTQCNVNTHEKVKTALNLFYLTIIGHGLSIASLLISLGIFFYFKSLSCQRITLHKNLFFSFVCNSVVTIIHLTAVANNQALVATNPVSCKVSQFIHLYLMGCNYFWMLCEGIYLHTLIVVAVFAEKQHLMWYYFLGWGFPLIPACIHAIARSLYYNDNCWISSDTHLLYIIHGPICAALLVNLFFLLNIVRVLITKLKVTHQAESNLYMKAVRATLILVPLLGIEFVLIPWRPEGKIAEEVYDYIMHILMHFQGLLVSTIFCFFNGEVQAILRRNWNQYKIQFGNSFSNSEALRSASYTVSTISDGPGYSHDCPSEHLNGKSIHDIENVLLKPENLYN
T1 sequence (O60895 43-175): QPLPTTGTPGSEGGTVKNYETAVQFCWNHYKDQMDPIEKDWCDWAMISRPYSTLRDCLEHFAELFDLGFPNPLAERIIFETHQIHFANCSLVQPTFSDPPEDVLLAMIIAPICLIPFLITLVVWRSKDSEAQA
T2 sequence (Q16602 23-461): as the sequence (Q16602 23-461) above
T2 sequence (O60896 24-148): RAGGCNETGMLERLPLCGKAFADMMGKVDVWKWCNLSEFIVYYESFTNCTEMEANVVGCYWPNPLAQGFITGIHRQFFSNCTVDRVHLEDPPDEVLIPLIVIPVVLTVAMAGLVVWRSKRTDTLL

For orientation: Emax means the greatest response seen or fitted, relative to the assay's reference. In the case of `CSCC[C@H](NC(=O)[C@H](CC(C)C)NC(=O)[C@H](CCC(N)=O)NC(=O)[C@H](Cc1c[nH]c2ccccc12)NC(=O)[C@H](CC(C)C)NC(=O)[C@H](CCCNC(=N)N)NC(=O)[C@H](Cc1c[nH]cn1)NC(=O)[C@H](CO)NC(=O)[C@H](CC(C)C)NC(=O)[C@H](CC(N)=O)NC(=O)[C@H](CCC(N)=O)NC(=O)[C@@H](NC(=O)[C@H](CCC(N)=O)NC(=O)[C@@H]1CSSC[C@H](NC(=O)CNC(=O)[C@@H](NC(=O)[C@H](CCCNC(=N)N)NC(=O)[C@H](CC(C)C)NC(=O)[C@H](CC(C)C)NC(=O)[C@H](CCC(N)=O)NC(=O)[C@H](C)NC(=O)[C@H](CCC(N)=O)NC(=O)[C@@H](N)[C@@H](C)O)C(C)C)C(=O)N[C@@H](C(C)C)C(=O)N[C@@H](CC(C)C)C(=O)NCC(=O)N[C@@H]([C@@H](C)O)C(=O)N1)C(C)C)C(=O)NCC(=O)N1CCC[C@H]1C(=O)N[C@@H](C)C(=O)NCC(=O)N[C@@H](CCCNC(=N)N)C(=O)N[C@@H](CCC(N)=O)C(=O)N[C@@H](CC(=O)O)C(=O)N[C@@H](CO)C(=O)N[C@@H](C)C(=O)N1CCC[C@H]1C(=O)N[C@H](C(=O)N[C@@H](CC(=O)O)C(=O)N1CCC[C@H]1C(=O)N[C@@H](CO)C(=O)N[C@@H](CO)C(=O)N1CCC[C@H]1C(=O)N[C@@H](Cc1c[nH]cn1)C(=O)N[C@@H](CO)C(=O)N[C@@H](Cc1ccc(O)cc1)C(N)=O)C(C)C` [AM2, adrenomedullin 2], the Emax worked out at 56 ± 2.2% on RAMP2-CLR (AM1 receptor) (HEK293, PTX treated (200 ng/ml, 16 h), percentage of maximal cAMP with 100 μM forskolin in presence of PTX, n = 6 (Table 3)); 34.1 ± 4% at RAMP2-CLR (AM1 receptor) (HEK293, percentage of maximal cAMP with 100 μM forskolin, HEK-293, 30 min, n = 8 (Table 2)); 36.6 ± 3.5% on RAMP2-CLR (AM1 receptor) (HEK293, untreated, percentage of maximal cAMP with 100 μM forskolin in presence of PTX, n = 9 (Table 3)).

On to `CC[C@H](C)[C@H](NC(=O)[C@H](CCC(N)=O)NC(=O)[C@H](Cc1c[nH]cn1)NC(=O)[C@H](C)NC(=O)[C@H](CC(C)C)NC(=O)[C@H](CCCCN)NC(=O)[C@H](CCC(N)=O)NC(=O)[C@@H](NC(=O)[C@@H](NC(=O)[C@@H]1CSSC[C@H](NC(=O)CNC(=O)[C@H](Cc2ccccc2)NC(=O)[C@H](CO)NC(=O)[C@H](CCCNC(=N)N)NC(=O)[C@H](CC(C)C)NC(=O)CNC(=O)[C@H](CCC(N)=O)NC(=O)[C@H](Cc2ccccc2)NC(=O)[C@H](CC(N)=O)NC(=O)[C@H](CC(N)=O)NC(=O)[C@H](CCSC)NC(=O)[C@H](CO)NC(=O)[C@H](CCC(N)=O)NC(=O)[C@H](CCCNC(=N)N)NC(=O)[C@@H](N)Cc2ccc(O)cc2)C(=O)N[C@@H](CCCNC(=N)N)C(=O)N[C@@H](Cc2ccccc2)C(=O)NCC(=O)N[C@@H]([C@@H](C)O)C(=O)N1)[C@@H](C)O)C(C)C)C(=O)N[C@@H](Cc1ccc(O)cc1)C(=O)N[C@@H](CCC(N)=O)C(=O)N[C@@H](Cc1ccccc1)C(=O)N[C@H](C(=O)N[C@@H](CC(=O)O)C(=O)N[C@@H](CCCCN)C(=O)N[C@@H](CC(=O)O)C(=O)N[C@@H](CCCCN)C(=O)N[C@@H](CC(=O)O)C(=O)N[C@@H](CC(N)=O)C(=O)N[C@H](C(=O)N[C@@H](C)C(=O)N1CCC[C@H]1C(=O)N[C@@H](CCCNC(=N)N)C(=O)N[C@@H](CO)C(=O)N[C@@H](CCCCN)C(=O)N[C@H](C(=O)N[C@@H](CO)C(=O)N1CCC[C@H]1C(=O)N[C@@H](CCC(N)=O)C(=O)NCC(=O)N[C@@H](Cc1ccc(O)cc1)C(N)=O)[C@@H](C)CC)C(C)C)[C@@H](C)O` [AM, adrenomedullin], for which the Emax at RAMP3-CLR (AM2 receptor) (HEK293, PTX treated (200 ng/ml, 16 h), percentage of maximal cAMP with 100 μM forskolin in presence of PTX, n = 7 (Table 3)) came to 36 ± 2.2%; on RAMP3-CLR (AM2 receptor) (HEK293, percentage of maximal cAMP with 100 μM forskolin, HEK-293, 30 min, n = 9 (Table 2)), 32.1 ± 1.6%; at RAMP3-CLR (AM2 receptor) (HEK293, untreated, percentage of maximal cAMP with 100 μM forskolin in presence of PTX, n = 8 (Table 3)), 32 ± 1.5%.
